In ChEMBL document CHEMBL1201862, “PubChem BioAssay data set” (2004):
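Exposure lasted 48 hours, with cells grown in 96-well plates and compounds tested at five concentrations. Here, GI50 denotes the concentration required for 50% inhibition of growth.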 Calls of active or inactive are those of the source. No stated cut-off is given here; in the data, active = GI50 up to about 1.1 µM and inactive = higher.

Experiments:
Experiment in all cases: inhibition of tumour cell growth, NCI panel, 48 h
HOP-92 = tested on: HOP-92
SK-MEL-2 = tested on: SK-MEL-2
M14 = tested on: M14
HCT-116 = tested on: HCT-116
SW-620 = tested on: SW-620
T47D = tested on: T47D
MDA-MB-231 = tested on: MDA-MB-231
RPMI-8226 = tested on: RPMI-8226
786-0 = tested on: 786-0
SR = tested on: SR
UACC-62 = tested on: UACC-62
SNB-19 = tested on: SNB-19
SF-539 = tested on: SF-539
NCI-H23 = tested on: NCI-H23
A498 = tested on: A498
PC-3 = tested on: PC-3
EKVX = tested on: EKVX
Hs-578T = tested on: Hs-578T
HT-29 = tested on: HT-29
MDA-N = tested on: MDA-N
BT-549 = tested on: BT-549
NCI/ADR-RES = tested on: NCI/ADR-RES
NCI-H460 = tested on: NCI-H460
RXF 393 = tested on: RXF 393
HCT-15 = tested on: HCT-15
U-251 = tested on: U-251
OVCAR-5 = tested on: OVCAR-5
SF-295 = tested on: SF-295
OVCAR-4 = tested on: OVCAR-4
SNB-75 = tested on: SNB-75
NCI-H226 = tested on: NCI-H226
IGROV-1 = tested on: IGROV-1
ACHN = tested on: ACHN
SK-MEL-5 = tested on: SK-MEL-5
NCI-H522 = tested on: NCI-H522
COLO 205 = tested on: COLO 205
MOLT-4 = tested on: MOLT-4
CCRF-CEM = tested on: CCRF-CEM
OVCAR-8 = tested on: OVCAR-8
OVCAR-3 = tested on: OVCAR-3
K562 = tested on: K562
SK-OV-3 = tested on: SK-OV-3
UACC-257 = tested on: UACC-257
SF-268 = tested on: SF-268
MCF7 = tested on: MCF7
MDA-MB-435 = tested on: MDA-MB-435
A549 = tested on: A549
LOX IMVI = tested on: LOX IMVI
TK-10 = tested on: TK-10
CAKI-1 = tested on: CAKI-1
HOP-62 = tested on: HOP-62
Malme-3M = tested on: Malme-3M
KM12 = tested on: KM12
UO-31 = tested on: UO-31
HCC 2998 = tested on: HCC 2998
HL-60 = tested on: HL-60
SK-MEL-28 = tested on: SK-MEL-28
SN12C = tested on: SN12C
DU-145 = tested on: DU-145

CCOC(=O)c1nc2ccccc2nc1NCc1ccc(Cl)cc1Cl
GI50 (HOP-92): > 100 µM (inactive) | GI50 (SK-MEL-2): > 100 µM (inactive) | GI50 (M14): > 100 µM (inactive) | GI50 (HCT-116): > 100 µM (inactive) | GI50 (SW-620): > 100 µM (inactive) | GI50 (T47D): > 100 µM (inactive) | GI50 (MDA-MB-231): > 100 µM (inactive) | GI50 (RPMI-8226): > 100 µM (inactive) | GI50 (786-0): > 100 µM (inactive) | GI50 (SR): 60.7 µM (inactive) | GI50 (UACC-62): > 100 µM (inactive) | GI50 (SNB-19): > 100 µM (inactive) | GI50 (SF-539): > 100 µM (inactive) | GI50 (NCI-H23): > 100 µM (inactive) | GI50 (A498): > 100 µM (inactive) | GI50 (PC-3): > 100 µM (inactive) | GI50 (EKVX): > 100 µM (inactive) | GI50 (Hs-578T): 65.6 µM (inactive) | GI50 (HT-29): > 100 µM (inactive) | GI50 (MDA-N): 96.8 µM (inactive) | GI50 (BT-549): > 100 µM (inactive) | GI50 (NCI/ADR-RES): > 100 µM (inactive) | GI50 (NCI-H460): 35 µM (inactive) | GI50 (RXF 393): > 100 µM (inactive) | GI50 (HCT-15): > 100 µM | GI50 (U-251): > 100 µM (inactive) | GI50 (OVCAR-5): > 100 µM (inactive) | GI50 (SF-295): > 100 µM (inactive) | GI50 (OVCAR-4): > 100 µM (inactive) | GI50 (SNB-75): 23.6 µM (inactive) | GI50 (NCI-H226): > 100 µM (inactive) | GI50 (IGROV-1): > 100 µM (inactive) | GI50 (ACHN): > 100 µM (inactive) | GI50 (SK-MEL-5): > 100 µM (inactive) | GI50 (NCI-H522): > 100 µM (inactive) | GI50 (COLO 205): > 100 µM (inactive) | GI50 (MOLT-4): > 100 µM (inactive) | GI50 (CCRF-CEM): > 100 µM (inactive) | GI50 (OVCAR-8): > 100 µM (inactive) | GI50 (OVCAR-3): > 100 µM (inactive) | GI50 (K562): > 100 µM (inactive) | GI50 (SK-OV-3): > 100 µM (inactive) | GI50 (UACC-257): > 100 µM (inactive) | GI50 (SF-268): > 100 µM (inactive) | GI50 (MCF7): > 100 µM (inactive) | GI50 (MDA-MB-435): 97.9 µM (inactive) | GI50 (A549): > 100 µM (inactive) | GI50 (LOX IMVI): > 100 µM (inactive) | GI50 (TK-10): > 100 µM (inactive) | GI50 (CAKI-1): > 100 µM (inactive) | GI50 (HOP-62): > 100 µM (inactive) | GI50 (Malme-3M): > 100 µM (inactive) | GI50 (KM12): > 100 µM (inactive) | GI50 (UO-31): > 100 µM (inactive)

Cc1ncc([N+](=O)[O-])n1CCNC(=O)CCn1ccnc1[N+](=O)[O-]
GI50 (SK-MEL-2): > 100 µM (inactive) | GI50 (M14): > 100 µM (inactive) | GI50 (HCT-116): > 100 µM (inactive) | GI50 (SW-620): > 100 µM (inactive) | GI50 (T47D): > 100 µM (inactive) | GI50 (RPMI-8226): > 100 µM (inactive) | GI50 (HCC 2998): > 100 µM (inactive) | GI50 (786-0): > 100 µM (inactive) | GI50 (SR): > 100 µM (inactive) | GI50 (UACC-62): > 100 µM (inactive) | GI50 (HL-60): > 100 µM (inactive) | GI50 (SNB-19): > 100 µM (inactive) | GI50 (SF-539): > 100 µM (inactive) | GI50 (NCI-H23): > 100 µM (inactive) | GI50 (PC-3): > 100 µM (inactive) | GI50 (SK-MEL-28): > 100 µM (inactive) | GI50 (EKVX): > 100 µM (inactive) | GI50 (Hs-578T): 66.8 µM (inactive) | GI50 (HT-29): > 100 µM (inactive) | GI50 (MDA-N): > 100 µM (inactive) | GI50 (BT-549): > 100 µM (inactive) | GI50 (SN12C): > 100 µM (inactive) | GI50 (NCI/ADR-RES): > 100 µM (inactive) | GI50 (NCI-H460): > 100 µM (inactive) | GI50 (HCT-15): > 100 µM | GI50 (U-251): > 100 µM (inactive) | GI50 (DU-145): > 100 µM (inactive) | GI50 (OVCAR-5): > 100 µM (inactive) | GI50 (SF-295): > 100 µM (inactive) | GI50 (OVCAR-4): > 100 µM (inactive) | GI50 (SNB-75): > 100 µM (inactive) | GI50 (NCI-H226): > 100 µM (inactive) | GI50 (IGROV-1): > 100 µM (inactive) | GI50 (ACHN): > 100 µM (inactive) | GI50 (SK-MEL-5): > 100 µM (inactive) | GI50 (NCI-H522): > 100 µM (inactive) | GI50 (COLO 205): > 100 µM (inactive) | GI50 (MOLT-4): > 100 µM (inactive) | GI50 (CCRF-CEM): > 100 µM (inactive) | GI50 (OVCAR-8): > 100 µM (inactive) | GI50 (OVCAR-3): > 100 µM (inactive) | GI50 (K562): > 100 µM (inactive) | GI50 (SK-OV-3): > 100 µM (inactive) | GI50 (UACC-257): > 100 µM (inactive) | GI50 (SF-268): > 100 µM (inactive) | GI50 (MCF7): > 100 µM (inactive) | GI50 (MDA-MB-435): > 100 µM (inactive) | GI50 (A549): > 100 µM (inactive) | GI50 (LOX IMVI): > 100 µM (inactive) | GI50 (TK-10): > 100 µM (inactive) | GI50 (CAKI-1): > 100 µM (inactive) | GI50 (HOP-62): > 100 µM (inactive) | GI50 (Malme-3M): > 100 µM (inactive) | GI50 (KM12): > 100 µM (inactive) | GI50 (UO-31): > 100 µM (inactive)

COc1cc2c(cc1OC)C1CN3C(=O)CCC3C(O)C1c1cc(OC)c(OC)cc1-2 (centres undefined)
GI50 (HOP-92): > 100 µM (inactive) | GI50 (SK-MEL-2): > 100 µM (inactive) | GI50 (M14): > 100 µM (inactive) | GI50 (HCT-116): > 100 µM (inactive) | GI50 (SW-620): > 100 µM (inactive) | GI50 (T47D): > 100 µM (inactive) | GI50 (MDA-MB-231): > 100 µM (inactive) | GI50 (RPMI-8226): > 100 µM (inactive) | GI50 (HCC 2998): > 100 µM (inactive) | GI50 (786-0): > 100 µM (inactive) | GI50 (SR): > 100 µM (inactive) | GI50 (UACC-62): > 100 µM (inactive) | GI50 (HL-60): > 100 µM (inactive) | GI50 (SNB-19): > 100 µM (inactive) | GI50 (NCI-H23): > 100 µM (inactive) | GI50 (A498): > 100 µM (inactive) | GI50 (SK-MEL-28): > 100 µM (inactive) | GI50 (EKVX): > 100 µM (inactive) | GI50 (Hs-578T): > 100 µM (inactive) | GI50 (HT-29): > 100 µM (inactive) | GI50 (MDA-N): > 100 µM (inactive) | GI50 (BT-549): > 100 µM (inactive) | GI50 (SN12C): > 100 µM (inactive) | GI50 (NCI/ADR-RES): > 100 µM (inactive) | GI50 (NCI-H460): > 100 µM (inactive) | GI50 (RXF 393): > 100 µM (inactive) | GI50 (HCT-15): > 100 µM | GI50 (U-251): > 100 µM (inactive) | GI50 (DU-145): > 100 µM (inactive) | GI50 (OVCAR-5): > 100 µM (inactive) | GI50 (SF-295): > 100 µM (inactive) | GI50 (OVCAR-4): > 100 µM (inactive) | GI50 (SNB-75): 20.9 µM (inactive) | GI50 (IGROV-1): > 100 µM (inactive) | GI50 (ACHN): > 100 µM (inactive) | GI50 (SK-MEL-5): > 100 µM (inactive) | GI50 (NCI-H522): > 100 µM (inactive) | GI50 (COLO 205): > 100 µM (inactive) | GI50 (MOLT-4): > 100 µM (inactive) | GI50 (CCRF-CEM): > 100 µM (inactive) | GI50 (OVCAR-8): > 100 µM (inactive) | GI50 (K562): > 100 µM (inactive) | GI50 (SK-OV-3): > 100 µM (inactive) | GI50 (UACC-257): > 100 µM (inactive) | GI50 (SF-268): > 100 µM (inactive) | GI50 (MCF7): > 100 µM (inactive) | GI50 (MDA-MB-435): > 100 µM (inactive) | GI50 (A549): > 100 µM (inactive) | GI50 (LOX IMVI): > 100 µM (inactive) | GI50 (TK-10): > 100 µM (inactive) | GI50 (CAKI-1): > 100 µM (inactive) | GI50 (HOP-62): > 100 µM (inactive) | GI50 (Malme-3M): > 100 µM (inactive) | GI50 (KM12): > 100 µM (inactive) | GI50 (UO-31): > 100 µM (inactive)
